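Interpolation was linear, between the two tested concentrations surrounding the appropriate level; five concentrations were tested over 48 hours in 96-well plates. Here, GI50 denotes the concentration required for 50% inhibition of growth. The concentration for full growth arrest is given as TGI.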
Experiments:
Assay in all cases: NCI-60 cell line screen, 48 h
[1] = tested on: SK-MEL-2 melanoma
[2] = tested on: SF-268 CNS
[3] = tested on: K-562 leukemia
[4] = tested on: DU-145 prostate
[5] = tested on: KM12 colon
[6] = tested on: TK-10 renal
[7] = tested on: HOP-62 NSCLC
[8] = tested on: HOP-92 NSCLC
[9] = tested on: U251 CNS
[10] = tested on: A498 renal
[11] = tested on: SN12C renal
[12] = tested on: OVCAR-4 ovarian
[13] = tested on: MDA-MB-435
[14] = tested on: HS 578T breast
[15] = tested on: M14 melanoma
[16] = tested on: PC-3 prostate
[17] = tested on: SK-OV-3 ovarian
[18] = tested on: UACC-62 melanoma
[19] = tested on: MOLT-4 leukemia
[20] = tested on: LOX IMVI melanoma
[21] = tested on: SNB-19 CNS
[22] = tested on: A549 NSCLC
[23] = tested on: MALME-3M melanoma
[24] = tested on: EKVX NSCLC
[25] = tested on: OVCAR-8 ovarian
[26] = tested on: SW-620 colon
[27] = tested on: CCRF-CEM leukemia
[28] = tested on: HCC-2998 colon
[29] = tested on: SK-MEL-28 melanoma
[30] = tested on: IGROV1 ovarian
[31] = tested on: UACC-257 melanoma
[32] = tested on: CAKI-1 renal
[33] = tested on: OVCAR-5 ovarian
[34] = tested on: HL-60(TB) leukemia
[35] = tested on: NCI-H460 lung
[36] = tested on: NCI/ADR-RES ovarian
[37] = tested on: MDA-MB-231 breast
[38] = tested on: RXF 393 renal
[39] = tested on: SNB-75 CNS
[40] = tested on: NCI-H226 lung
[41] = tested on: SF-539 CNS
[42] = tested on: BT-549 breast
[43] = tested on: NCI-H23 lung
[44] = tested on: COLO 205 colon
[45] = tested on: RPMI-8226 leukemia
[46] = tested on: T-47D breast
[47] = tested on: OVCAR-3 ovarian
[48] = tested on: SK-MEL-5 melanoma
[49] = tested on: HCT-116 colon
[50] = tested on: HCT-15 colon
[51] = tested on: UO-31 renal
[52] = tested on: MCF7 breast
[53] = tested on: SF-295 CNS
[54] = tested on: HT29 colon
[55] = tested on: 786-0 renal
[56] = tested on: NCI-H522 lung
[57] = tested on: ACHN renal

`O=C1CC(c2cccc(O)c2)C2(C(=O)NC(=S)NC2=O)C(c2cccc(O)c2)C1` (centres undefined) was tested, and the GI50 [1] was > 100 µM, the TGI [1] was > 100 µM and the GI50 [2] was > 100 µM. The TGI [2] was > 100 µM, the GI50 [3] was > 100 µM and the TGI [3] was > 100 µM. The GI50 [4] was > 100 µM, the TGI [4] was > 100 µM and the GI50 [5] was > 100 µM. For the same compound, the TGI [5] was > 100 µM, the GI50 [6] was > 100 µM and the TGI [6] was > 100 µM. The GI50 [7] was > 100 µM, the TGI [7] was > 100 µM and the GI50 [8] was > 100 µM. For the same compound, the TGI [8] was > 100 µM, the GI50 [9] was > 100 µM and the TGI [9] was > 100 µM. The GI50 [10] was > 100 µM, the TGI [10] was > 100 µM and the GI50 [11] was > 100 µM. The TGI [11] was > 100 µM, the GI50 [12] was > 100 µM and the TGI [12] was > 100 µM. For the same compound, the GI50 [13] was > 100 µM, the TGI [13] was > 100 µM and the GI50 [14] was > 100 µM. The TGI [14] was > 100 µM, the GI50 [15] was > 100 µM and the TGI [15] was > 100 µM. For the same compound, the GI50 [16] was > 100 µM, the TGI [16] was > 100 µM and the GI50 [17] was > 100 µM. For the same compound, the TGI [17] was > 100 µM, the GI50 [18] was > 100 µM and the TGI [18] was > 100 µM. The GI50 [19] was > 100 µM, the TGI [19] was > 100 µM and the GI50 [20] was > 100 µM. For the same compound, the TGI [20] was > 100 µM, the GI50 [21] was > 100 µM and the TGI [21] was > 100 µM. The GI50 [22] was > 100 µM, the TGI [22] was > 100 µM and the GI50 [23] was > 100 µM. For the same compound, the TGI [23] was > 100 µM, the GI50 [24] was > 100 µM and the TGI [24] was > 100 µM. The GI50 [25] was > 100 µM, the TGI [25] was > 100 µM and the GI50 [26] was > 100 µM. For the same compound, the TGI [26] was > 100 µM, the GI50 [27] was > 100 µM and the TGI [27] was > 100 µM. The GI50 [28] was > 100 µM, the TGI [28] was > 100 µM and the GI50 [29] was > 100 µM. For the same compound, the TGI [29] was > 100 µM, the GI50 [30] was > 100 µM and the TGI [30] was > 100 µM. The GI50 [31] was > 100 µM, the TGI [31] was > 100 µM and the GI50 [32] was > 100 µM. The TGI [32] was > 100 µM, the GI50 [33] was > 100 µM and the TGI [33] was > 100 µM. For the same compound, the GI50 [34] was > 100 µM, the TGI [34] was > 100 µM and the GI50 [35] was > 100 µM. For the same compound, the TGI [35] was > 100 µM, the GI50 [36] was > 100 µM and the TGI [36] was > 100 µM. For the same compound, the GI50 [37] was > 100 µM, the TGI [37] was > 100 µM and the GI50 [38] was > 100 µM. For the same compound, the TGI [38] was > 100 µM, the GI50 [39] was > 100 µM and the TGI [39] was > 100 µM. The GI50 [40] was > 100 µM, the TGI [40] was > 100 µM and the GI50 [41] was > 100 µM. For the same compound, the TGI [41] was > 100 µM, the GI50 [42] was > 100 µM and the TGI [42] was > 100 µM. The GI50 [43] was > 100 µM, the TGI [43] was > 100 µM and the GI50 [44] was > 100 µM. For the same compound, the TGI [44] was > 100 µM, the GI50 [45] was > 100 µM and the TGI [45] was > 100 µM. The GI50 [46] was > 100 µM, the TGI [46] was > 100 µM and the GI50 [47] was > 100 µM. For the same compound, the TGI [47] was > 100 µM, the GI50 [48] was > 100 µM and the TGI [48] was > 100 µM. For the same compound, the GI50 [49] was > 100 µM, the TGI [49] was > 100 µM and the GI50 [50] was > 100 µM. For the same compound, the TGI [50] was > 100 µM, the GI50 [51] was > 100 µM and the TGI [51] was > 100 µM. The GI50 [52] was > 100 µM, the TGI [52] was > 100 µM and the GI50 [53] was > 100 µM. The TGI [53] was > 100 µM, the GI50 [54] was > 100 µM and the TGI [54] was > 100 µM. The GI50 [55] was > 100 µM, the TGI [55] was > 100 µM and the GI50 [56] was > 100 µM. The TGI [56] was > 100 µM, the GI50 [57] was > 100 µM and the TGI [57] was > 100 µM.

From PubChem BioAssay (NCI)
